The series is described as follows: cn = amount concentration of the nth substance listed, in mol/dm3. Conditions: 308 K, Liquid; for mass density: 101 kPa; for viscosity: 101.3 kPa.

Structures are written as SMILES. Numbers after ± are expanded uncertainties.

`O=[N+]([O-])[O-].O=[N+]([O-])[O-].[Cu+2]` [copper dinitrate] + O: where the note is “c1 = 0.06”, the mass density was determined as 1002.3 ± 0.8 kg/m3 and the viscosity worked out at 0.7347 ± 0.019 mPa·s. For the setting “c1 = 0.1”, the mass density is 1008.6 ± 0.8 kg/m3 and the viscosity is reported as 0.7487 ± 0.02 mPa·s.

For the compound `[Cl][Ni][Cl]` [nickel chloride (NiCl2)] + O, under “c1 = 0.06”, the mass density is reported as 994.09 ± 0.7 kg/m3 and the viscosity is listed as 0.7261 ± 0.019 mPa·s. Besides, for the setting “c1 = 0.1”, the mass density is 1004 ± 0.7 kg/m3 and the viscosity stood at 0.7469 ± 0.019 mPa·s.

These data come from the NIST ThermoML archive (doi:10.1016/j.fluid.2007.01.043).
